“Also recorded” adds a separate entry of the source.
Assays:
[1] = tested on: complete Freund's adjuvant (CFA) model of inflammatory pain; test: Complete Freund's adjuvant (CFA) model of inflammatory pain; type: in vivo; conditions: rat, topical
[2] = Protein binding in human plasma; type: in vitro ADME
[3] = tested on: minipig hepatocytes; test: In vitro metabolic stability in hepatocytes (minipig); type: in vitro ADME; conditions: ^14C-spiro-oxindole compound
Excerpt: (§1) A total of 8 metabolites were identified in samples (in vitro and in vivo) from rats, dogs, and humans. All metabolites found in humans were also found in the Good Laboratory Practice (GLP) toxicology species, the rat. Following oral administration of spiro-oxindole compound to humans, spiro-oxindole compound and 3 of its metabolites (M1, M5, and M6) were measurable. A similar metabolic profile was observed following topical administration to humans, albeit at much lower plasma concentrations, except metabolite M1 was not detected following human topical administration.

[4] = tested on: rat hepatocytes; test: In vitro metabolic stability in hepatocytes (rat); type: in vitro ADME; conditions: ^14C-spiro-oxindole compound
Excerpt: as §1

[5] = Metabolite identification in samples (in vitro and in vivo); type: in vitro ADME; conditions: samples (in vitro and in vivo) from rats, dogs, and humans
Excerpt: as §1

[6] = Joint penetration and tissue distribution study in domestic pig, multiple-dose topical administration (Biological Example 2); type: in vivo
Protocol: This study was conducted to evaluate the joint penetration, systemic plasma exposure and tissue distribution of the spiro-oxindole compound in domestic pigs following topical administration of a pharmaceutical composition utilized in the methods of the invention. Fifteen female pigs were used in this study with three pigs in each group. Beginning on Day 1, a pharmaceutical composition of the invention was topically applied to the left radiocarpal joint (carpus) and tibiotarsal joint (hock) twice daily (bid) for 17 days (34 applications) for Groups 1-4 and once daily (qd) for 17 days (17 applications) for Group 5. Pre-dose blood samples (prior to morning dosing) was collected on Days 2, 7, 10, 14 and 17. A full pharmacokinetic sampling was performed on Day 17 (post am dosing) at the following time points: 1, 2, 4, 8 and 12 hr. On the day of necropsy, Day 18, blood was collected prior to euthanasia, each pig was humanely euthanized and dorsal skin and muscle, liver, kidney, heart, lung, brain, intestine, fat, ovaries, urinary bladder, sciatic nerve, and skin, muscle, synovial membrane, and synovial fluid from all 4 joints (2 treated, left carpus and hock, and 2 untreated, right carpus and hock) was collected.
Doses were calculated by measuring the joint circumference and joint width (to include ˜2 cm above and below the joint) to calculate the total surface area for each individual dose. Group 1 received a 2% pharmaceutical composition of the invention and the dose volume for Group 1 was calculated using the total surface area and the designated dose volume of 3 μL/cm^2. The total dose volume was then converted from μL to mL to estimate the dose weight in grams, based on the composition density of 1 g/cm^3. Following is an example (not actual measurements) of calculating the dose:
For Groups 2-5, the dose volume was calculated using the total surface area and the designated dose volume of 3 μL/cm^2 (Groups 2, 3 and 5) or 1 μL/cm^2 (Group 4). […]

[7] = target: CYP450 2C9 (Homo sapiens, UniProt P11712); test: Reaction phenotyping with recombinant human CYP450 enzymes: CYP2C9; type: in vitro ADME; conditions: recombinant human CYP450 2C9
Chain of CYP450 2C9 (P11712 whole entry): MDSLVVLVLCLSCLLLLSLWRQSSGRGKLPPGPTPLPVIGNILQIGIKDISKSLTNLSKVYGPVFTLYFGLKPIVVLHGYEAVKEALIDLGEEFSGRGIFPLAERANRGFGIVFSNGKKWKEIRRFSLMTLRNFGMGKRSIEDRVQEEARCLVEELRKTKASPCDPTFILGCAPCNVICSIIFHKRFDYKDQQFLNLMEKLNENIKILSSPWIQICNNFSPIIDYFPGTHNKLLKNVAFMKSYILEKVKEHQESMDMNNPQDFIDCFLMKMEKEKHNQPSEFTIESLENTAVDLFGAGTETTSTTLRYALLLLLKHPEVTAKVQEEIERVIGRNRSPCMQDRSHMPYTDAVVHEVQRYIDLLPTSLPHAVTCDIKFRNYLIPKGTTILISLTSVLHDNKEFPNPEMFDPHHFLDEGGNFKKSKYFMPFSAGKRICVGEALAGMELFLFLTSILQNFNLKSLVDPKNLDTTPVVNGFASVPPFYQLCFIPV

[8] = 4-week (GLP) repeat-dose dermal toxicity study in minipigs; conditions: minipig, in vivo, topical or ocular, 30 mg/kg/day dermal, day 28; for AUC(0-t): read-out: AUC0-24 h
Protocol: Repeat-dose dermal toxicity of a pharmaceutical composition comprising the spiro-oxindole compound was evaluated in minipigs in a 7-day (non-GLP) dermal study and in a 4-week (GLP) dermal study with a 2-week recovery period. In addition, a dose range-finding (DRF) dermal study in minipigs was conducted to aid in dose selection for a 39-week dermal toxicity study in minipigs.
However, the vehicle ointment produced in all treatment groups transient, mild to moderate, and occasionally severe dermal irritation that returned to normal during the recovery period. This correlated with minimal epidermal hyperplasia observed microscopically in the treated skin across all groups.

[9] = tested on: bacterial reverse mutation; test: Bacterial reverse mutation assay (GLP); type: cell-based
Excerpt: The spiro-oxindole compound was not genotoxic in the standard battery of genotoxicity tests (GLP), including a bacterial reverse mutation assay, an in vitro chromosome aberration assay in cultured human lymphocytes, and an in vivo rat bone marrow micronucleus test.

[10] = in vivo; set-up: species or system rats; conditions: rat, po
Protocol: The no-observed-adverse-effect level (NOAEL) was determined to be 150 mg/kg/day in both males and females. […] The NOAEL for maternal toxicity was 50 mg/kg/day. […] The NOAEL for embryo-fetal toxicity was 150 mg/kg/day.

[11] = Mouse local lymph node assay; type: in vivo
[12] = Phototoxicity assays (in vitro or in vivo)
[13] = Drug-drug interaction study in healthy subjects: pharmacokinetics of the spiro-oxindole compound (Biological Example 5); type: in vivo, human
Excerpt: Pharmacokinetic parameters were derived by noncompartmental analysis.

[14] = domestic pig, topical administration to a joint

O=C1N(Cc2ccc(C(F)(F)F)o2)c2ccccc2[C@]12COc1cc3c(cc12)OCO3 [spiro-oxindole compound, (S)-1′-{[5-(trifluoromethyl)furan-2-yl]methyl}spiro[furo[2,3-f][1,3]benzodioxole-7,3′-indol]-2′(1′H)-one]
minimum effective dose associated with pain relief [1]: 2 % (w/w) | protein bound [2]: 99.4% | in vitro metabolic stability in hepatocytes [3]: 18% | in vitro metabolic stability in hepatocytes [4]: 16% | total number of metabolites identified [5]: 8 metabolites | concentration in the synovial membrane tissue of the treated joint (in words) [6, 14]: micromolar concentrations | plasma concentrations (in words) [6, 14]: nanomolar | spiro-oxindole compound concentration in liver tissue ([6]; pig G2 (#4-6): 4% composition, 3 μL/cm^2 bid topical 17 days, individual animals): 0/0 | contribution to spiro-oxindole compound metabolism [7]: limited or no involvement | Cmax ([8]; female minipigs): 20 ng/mL | AUC(0-t) ([8]; female minipigs): 382 ng·h/mL | Cmax ([8]; male minipigs): 21 ng/mL | AUC(0-t) ([8]; male minipigs): 365 ng·h/mL | genotoxicity [9]: not genotoxic | NOAEL ([10]; both sexes): 150 mg/kg/day | AUC(0-t) ([10]; female, 50 mg/kg/day): 18000 ng·h/mL | Cmax ([10]; female, 50 mg/kg/day): 1440 ng/mL | AUC(0-t) ([10]; female, 150 mg/kg/day): 41500 ng·h/mL | Cmax ([10]; female, 150 mg/kg/day): 3380 ng/mL | NOAEL ([10]; female, NOAEL for embryo-fetal toxicity): 150 mg/kg/day | NOAEL ([10]; female, NOAEL for maternal toxicity): 50 mg/kg/day | skin sensitization [11]: not a skin sensitizer | phototoxicity potential [12]: did not show phototoxicity potential | relationship of exposure with CYP2C19 phenotype [13]: no apparent relationship | mean plasma concentration at the follow-up visit (360±24 hours) ([13]; after final application of 8% composition): 0.32629 ng/mL | Cmax ([13]; both sexes, human, plasma, topical, 8 % composition applied to 53% of BSA, BID, day 9, over 24 hours from the final application, read-out: geometric mean Cmax): 15.1 ng/mL | AUC(0-t) ([13]; both sexes, human, plasma, topical, 8 % composition applied to 53% of BSA, BID, first 12 hours after the final application, read-out: geometric mean AUC0-12): 133 ng·h/mL | concentration at 24 hours ([13]; both sexes, human, plasma, topical, 8 % composition applied to 53% of BSA, day 9, after final application of 8% composition (BID, 53% BSA, 7.5 days), read-out: mean plasma concentration at 24 hours postdose): 11.7 ng/mL | geometric mean Ctrough (predose value) ([13]; day 9, topical 8% composition BID 53% BSA): 12.76052 ng/mL | average concentration over the 12-hour period ([13]; first 12 hours after the final application): 11075.55 pg/mL | steady state (in words) ([13]; topical BID dosing): steady state had not been achieved after 7.5 days of dosing; also recorded: did not reach steady state within 7.5 days

Reference: patent US9682033B2, “Methods of treating postherpetic neuralgia with a topical formulation of a spiro-oxindole compound” (Teva Pharmaceuticals International GmbH, priority 2015, dated 2017)
